The structures appear in SMILES notation. A value given as a limit tells only on which side of the number the result lay.

One experiment concerns the target T1, Recombinant human cathepsin A (Homo sapiens, UniProt P10619).
T1 construct: Recombinant human cathepsin A (residues 29-480, with a C-terminal 10-His tag); 10-His (C); purchased R&D Systems 1049-SE
T1 sequence (P10619 29-312 limits assumed): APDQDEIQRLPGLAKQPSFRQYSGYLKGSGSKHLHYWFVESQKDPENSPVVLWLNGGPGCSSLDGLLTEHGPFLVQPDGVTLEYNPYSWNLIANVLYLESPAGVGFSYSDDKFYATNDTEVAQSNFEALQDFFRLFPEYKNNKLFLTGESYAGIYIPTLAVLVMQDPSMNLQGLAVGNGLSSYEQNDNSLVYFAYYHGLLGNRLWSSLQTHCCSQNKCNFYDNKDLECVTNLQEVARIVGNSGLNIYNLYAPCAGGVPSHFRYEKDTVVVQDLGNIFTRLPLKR
T1 sequence (P10619 327-480 limits assumed): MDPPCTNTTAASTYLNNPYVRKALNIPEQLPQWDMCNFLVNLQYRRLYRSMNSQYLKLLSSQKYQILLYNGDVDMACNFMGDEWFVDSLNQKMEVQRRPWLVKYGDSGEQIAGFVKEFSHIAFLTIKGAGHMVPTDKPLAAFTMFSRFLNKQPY
In words: Cathepsin A inhibitory activity. The following applies: pharmacological test "Cathepsin A inhibitory activity"; IC50 given as class A/B/C; read-out: Activity (2): Cathepsin A inhibitory activity, IC50 class. The format is biochemical. The method, boiled down: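 Human cathepsin A (res. 29-480, C-His10) pre-activated with cathepsin L (MES pH 6.0, DTT, 15 min, 37 °C; quenched with 10 μM E-64). Enzyme (833 ng/ml) preincubated 15 min RT with compound in MES pH 5.5/DTT, then 2 μM Bodipy FL-bradykinin for 15 min RT. Capillary electrophoresis product/substrate peak areas; IC50 from % inhibition.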
For orientation: IC50 means the midpoint of a concentration-inhibition curve. As to `O=C(O)C[C@H](NC(=O)c1cc(O)n(-c2ccccc2)n1)c1cccc(Cl)c1Cl` [Example 164], the IC50 is below 100 nM.

Turning to `O=C(O)C[C@H](NC(=O)c1cc(O)n(-c2ccccc2F)n1)c1ccc(-c2ccc(F)cc2)cc1` [Example 146], the IC50 fell in the range of 1000 to 30000 nM.

Regarding `O=C(O)C[C@H](NC(=O)c1cc(O)n(-c2ccccc2F)n1)c1cccnc1` [Example 140], the IC50 was in the range of 100 to 1000 nM.

With `O=C(O)CC(NC(=O)c1cc(O)n(-c2ccc(F)cc2F)n1)c1ccc(Oc2ccccc2)cc1` (stereo not drawn) [Example 199], the IC50 lay within 100 to 1000 nM.

On to `N#Cc1ccc([C@H](CC(=O)O)NC(=O)c2cc(O)n(-c3ccc(F)cc3F)n2)cc1` [Example 176], for which the IC50 is 100 to 1000 nM.

In the case of `COc1ccc(C(CC(=O)O)NC(=O)c2cc(O)n(-c3ccccc3)n2)c(Cl)c1` (stereo not drawn) [Example 162], the IC50 was 100 to 1000 nM.

The experiment is the same for the next values; noted with them: read-out: Activity (2): Cathepsin A inhibitory activity (IC50 class).
On to `Cc1ccccc1[C@H](CC(=O)O)NC(=O)c1cc(OCC(=O)C(C)(C)C)n(-c2ccccc2F)n1` [Example 700, (S)-3-{[5-(3,3-Dimethyl-2-oxo-butoxy)-1-(2-fluoro-phenyl)-1H-pyrazole-3-carbonyl]-amino}-3-o-tolyl-propionic acid], for which the IC50 was below 100 nM.

For `Cc1cc(COc2cc(C(=O)N[C@@H](CC(=O)O)c3ccccc3C)nn2-c2ccccc2F)on1` [Example 643], the IC50 was below 100 nM.

For the compound `COc1cc(C(=O)N[C@@H](CC(=O)O)c2ccc(Cl)cc2)nn1-c1ccccc1F` [Example 671], the IC50 was below 100 nM.

`CCOc1cc(C(=O)N[C@@H](CC(=O)O)c2cccc(OC)c2)nn1-c1ccccc1Cl` [Example 731]: the IC50 was 100 to 1000 nM.

For the compound `Cc1ccccc1[C@H](CC(=O)O)NC(=O)c1cc(OCCN2CCCC2=O)n(-c2ccccc2F)n1` [Example 639], the IC50 was below 100 nM.

Turning to `O=C(O)C[C@H](NC(=O)c1cc(OCC2CC2)n(-c2ccccc2F)n1)c1ccccc1C(F)(F)F` [Example 701], the IC50 was in the range of 100 to 1000 nM.

In the case of `Cc1ccccc1[C@H](CC(=O)O)NC(=O)c1cc(O)n(-c2ccc(S(N)(=O)=O)cc2)n1` [Example 602], the IC50 was 1000 to 30000 nM.

As for `CC(C)(C)[C@@](C)(O)COc1cc(C(=O)N[C@@H](CC(=O)O)c2ccccc2Cl)nn1-c1ccccc1F` [Example 790, (S)-3-(2-Chloro-phenyl)-3-{[1-(2-fluoro-phenyl)-5-((R)-2-hydroxy-2,3,3-trimethyl-butoxy)-1H-pyrazole-3-carbonyl]-amino}-propionic acid], the IC50 is below 100 nM.

Take `Cc1ccccc1[C@H](CC(=O)O)NC(=O)c1cc(OCC(C)(C)C)n(-c2ccccc2F)n1` [Example 632]: the IC50 is below 100 nM.

On to `O=C(O)CC(NC(=O)c1cc(O)n(C2CCCCC2)n1)c1ccc(-c2ccc(F)cc2)cc1` (stereo not drawn) [Example 575], for which the half-inhibitory concentration (IC50) lay within 1000 to 30000 nM.

For `O=C(O)C[C@H](NC(=O)c1cc(OCC2CC2)n(-c2ccccc2F)n1)c1ccc(Cl)cc1` [Example 691], the IC50 was in the range of 100 to 1000 nM.

Staying with this experiment, now noted: read-out: Activity (2): Cathepsin A inhibitory activity, IC50 class.
`Cc1ccc(C(CC(=O)O)NC(=O)c2cc(O)n(-c3ccc(Cl)cc3)n2)c(C)c1` (stereo not drawn) [Example 291]: the IC50 lay within 100 to 1000 nM.

On to `O=C(O)CC(NC(=O)c1cc(O)n(-c2ccccc2)n1)c1cccc(Cl)c1` (stereo not drawn) [Example 10], for which the IC50 is 100 to 1000 nM.

In the case of `O=C(O)CC(NC(=O)c1cc(O)n(-c2ccccc2)n1)c1ccc(-n2ccnc2)cc1` (stereo not drawn) [Example 105], the IC50 was in the range of 1000 to 30000 nM.

With `COc1ccc(C(CC(=O)O)NC(=O)c2cc(O)n(-c3ccc(F)cc3)n2)c(Cl)c1` (stereo not drawn) [Example 345], the IC50 is 100 to 1000 nM.

Consider `O=C(O)C[C@H](NC(=O)c1cc(O)n(-c2ccccc2)n1)c1c(F)cccc1F` [Example 103], for which the IC50 is 100 to 1000 nM.

In the case of `O=C(O)CC(NC(=O)c1cc(O)n(-c2ccccc2)n1)c1cc(C(F)(F)F)cc(C(F)(F)F)c1` (stereo not drawn) [Example 59], the IC50 was in the range of 1000 to 30000 nM.

`COc1ccc(C(CC(=O)O)NC(=O)c2cc(O)n(-c3ccccc3F)n2)c(C)c1` (stereo not drawn) [Example 395]: the IC50 lay within 100 to 1000 nM.

Turning to `O=C(O)C[C@H](NC(=O)c1cc(O)n(-c2ccc(Cl)cc2)n1)c1cccc(C(F)(F)F)c1` [Example 285], the IC50 lay within 1000 to 30000 nM.

Take `COc1ccc(C(CC(=O)O)NC(=O)c2cc(O)n(-c3ccc(F)cc3F)n2)c(OC)c1` (stereo not drawn) [Example 383]: the IC50 was in the range of 100 to 1000 nM.

For `CC(C)(C)[C@@H](O)COc1cc(C(=O)N[C@@H](CC(=O)O)c2cccc(Cl)c2)nn1-c1ccccc1F` [Example 795, (S)-3-(3-Chloro-phenyl)-3-{[1-(2-fluoro-phenyl)-5-((R)-2-hydroxy-3,3-dimethyl-butoxy)-1H-pyrazole-3-carbonyl]-amino}-propionic acid], the IC50 was below 100 nM.

Turning to `COc1ccccc1[C@@H](NC(=O)c1cc(O)n(-c2cccc(F)c2)n1)[C@@H](O)C(=O)O` [Example 316], the IC50 was in the range of 1000 to 30000 nM.

`COc1ccc(C(CC(=O)O)NC(=O)c2cc(O)n(-c3ccccc3)n2)c(C)c1C` (stereo not drawn) [Example 25]: the IC50 was in the range of 1000 to 30000 nM.

As for `Cc1ccc(C)c(-n2nc(C(=O)NC(CC(=O)O)c3cc(F)cc(F)c3)cc2O)c1` (stereo not drawn) [Example 56], the IC50 was in the range of 1000 to 30000 nM.

Take `O=C(O)CC(NC(=O)c1cc(O)n(-c2ccc(Cl)cc2)n1)c1cccc(Cl)c1Cl` (stereo not drawn) [Example 281]: the IC50 lay within 100 to 1000 nM.

For the compound `O=C(O)C[C@H](NC(=O)c1cc(O)n(-c2ccccc2F)n1)c1cccc(Cl)c1Cl` [Example 399], the IC50 is below 100 nM.

Consider `N#Cc1cccc([C@H](CC(=O)O)NC(=O)c2cc(O)n(-c3ccc(Cl)cc3)n2)c1` [Example 271], for which the IC50 was in the range of 1000 to 30000 nM.

Take `COc1ccc([C@H](CC(=O)O)NC(=O)c2cc(OC[C@](C)(O)C(C)C)n(-c3ccccc3F)n2)cc1` [Example 850, (S)-3-{[1-(2-Fluoro-phenyl)-5-((R)-2-hydroxy-2,3-dimethyl-butoxy)-1H-pyrazole-3-carbonyl]-amino}-3-(4-methoxy-phenyl)-propionic acid]: the IC50 was below 100 nM.

For the compound `CC(C)(C)[C@H](O)COc1cc(C(=O)N[C@@H](CC(=O)O)c2ccc(Cl)cc2)nn1-c1ccccc1F` [Example 794, (S)-3-(4-Chloro-phenyl)-3-{[1-(2-fluoro-phenyl)-5-((S)-2-hydroxy-3,3-dimethyl-butoxy)-1H-pyrazole-3-carbonyl]-amino}-propionic acid], the IC50 is below 100 nM.

The same experiment, now with this note: recombinant human cathepsin A 833 ng/ml, Bodipy FL-labeled bradykinin 2 μM, pH 5.5; read-out: CATH-A IC50.
As to `O=C(O)CC(NC(=O)c1cc(O)n(-c2ccccc2)n1)c1cc(F)ccc1C(F)(F)F` (stereo not drawn) [Example 443, 3-(5-Fluoro-2-trifluoromethyl-phenyl)-3-[(5-hydroxy-1-phenyl-1H-pyrazole-3-carbonyl)-amino]-propionic acid], the IC50 came out at 220 nM.

In the case of `O=C(O)CC(NC(=O)c1cc(O)n(-c2cccc(Cl)c2)n1)c1cccc2c1OC(F)(F)O2` (stereo not drawn) [Example 464, 3-{[1-(3-Chloro-phenyl)-5-hydroxy-1H-pyrazole-3-carbonyl]-amino}-3-(2,2-difluoro-benzo[1,3]dioxol-4-yl)-propionic acid], the IC50 amounted to 274 nM.

Take `Cc1c(F)cccc1C(CC(=O)O)NC(=O)c1cc(O)n(-c2ccc(Cl)cc2)n1` (stereo not drawn) [Example 468, 3-{[1-(4-Chloro-phenyl)-5-hydroxy-1H-pyrazole-3-carbonyl]-amino}-3-(3-fluoro-2-methyl-phenyl)-propionic acid]: the IC50 was 280 nM.

As to `COc1cccc(F)c1C(CC(=O)O)NC(=O)c1cc(O)n(-c2ccc(F)cc2F)n1` (stereo not drawn) [Example 449, 3-{[1-(2,4-Difluoro-phenyl)-5-hydroxy-1H-pyrazole-3-carbonyl]-amino}-3-(2-fluoro-6-methoxy-phenyl)-propionic acid], the IC50 worked out at 176 nM.

Consider `O=C(O)CC(NC(=O)c1cc(O)n(-c2cccc(Cl)c2)n1)c1cc(F)ccc1Cl` (stereo not drawn) [Example 509, 3-(2-Chloro-5-fluoro-phenyl)-3-{[1-(3-chloro-phenyl)-5-hydroxy-1H-pyrazole-3-carbonyl]-amino}-propionic acid], for which the IC50 is 100 nM.

Still in this experiment, the particulars now being: recombinant human cathepsin A; read-out: Activity (2): Cathepsin A inhibitory activity, IC50 class.
`O=C(O)CC(NC(=O)c1cc(O)n(-c2ccccc2)n1)c1cc(F)ccc1C(F)(F)F` (stereo not drawn) [Example 443, 3-(5-Fluoro-2-trifluoromethyl-phenyl)-3-[(5-hydroxy-1-phenyl-1H-pyrazole-3-carbonyl)-amino]-propionic acid]: the IC50 was 100 to 1000 nM.

In the case of `O=C(O)CC(NC(=O)c1cc(O)n(-c2cccc(Cl)c2)n1)c1cccc2c1OC(F)(F)O2` (stereo not drawn) [Example 464, 3-{[1-(3-Chloro-phenyl)-5-hydroxy-1H-pyrazole-3-carbonyl]-amino}-3-(2,2-difluoro-benzo[1,3]dioxol-4-yl)-propionic acid], the IC50 lay within 100 to 1000 nM.

For the compound `COc1cc(C(=O)N[C@@H](CC(=O)Nc2cc(C)[nH]n2)c2ccccc2C)nn1-c1ccccc1F` [Example 923, 1-(2-Fluoro-phenyl)-5-methoxy-1H-pyrazole-3-carboxylic acid [(S)-2-(5-methyl-1H-pyrazol-3-ylcarbamoyl)-1-o-tolyl-ethyl]-amide], the IC50 lay in the range of 1000 to 30000 nM.

In the case of `Cc1c(F)cccc1C(CC(=O)O)NC(=O)c1cc(O)n(-c2ccc(Cl)cc2)n1` (stereo not drawn) [Example 468, 3-{[1-(4-Chloro-phenyl)-5-hydroxy-1H-pyrazole-3-carbonyl]-amino}-3-(3-fluoro-2-methyl-phenyl)-propionic acid], the IC50 was in the range of 100 to 1000 nM.

Take `Cc1c(F)cccc1C(CC(=O)O)NC(=O)c1cc(O)n(-c2ccc(F)cc2)n1` (stereo not drawn) [Example 523, 3-(3-Fluoro-2-methyl-phenyl)-3-{[1-(4-fluoro-phenyl)-5-hydroxy-1H-pyrazole-3-carbonyl]-amino}-propionic acid]: the IC50 was 100 to 1000 nM.

Consider `COc1cc(C(=O)N[C@@H](CC(=O)Nc2ccn(C)n2)c2ccccc2C)nn1-c1ccccc1F` [Example 930, 1-(2-Fluoro-phenyl)-5-methoxy-1H-pyrazole-3-carboxylic acid [(S)-2-(1-methyl-1H-pyrazol-3-ylcarbamoyl)-1-o-tolyl-ethyl]-amide], for which the IC50 is 100 to 1000 nM.

`COc1cccc(F)c1C(CC(=O)O)NC(=O)c1cc(O)n(-c2ccc(F)cc2F)n1` (stereo not drawn) [Example 449, 3-{[1-(2,4-Difluoro-phenyl)-5-hydroxy-1H-pyrazole-3-carbonyl]-amino}-3-(2-fluoro-6-methoxy-phenyl)-propionic acid]: the IC50 lay within 100 to 1000 nM.

With `O=C(O)CC(NC(=O)c1cc(O)n(-c2cccc(Cl)c2)n1)c1cc(F)ccc1Cl` (stereo not drawn) [Example 509, 3-(2-Chloro-5-fluoro-phenyl)-3-{[1-(3-chloro-phenyl)-5-hydroxy-1H-pyrazole-3-carbonyl]-amino}-propionic acid], the IC50 is 100 to 1000 nM.

The record behind these values is patent publication US8664257B2, “Oxygen-substituted 3-heteroaroylamino-propionic acid derivatives and their use as pharmaceuticals” (Sanofi, priority 2010, dated 2014).
